In US20090221607A1, “Piperazine Derivatives” (M's Science Corporation, priority 2006, published 2009):
Where a name gives a salt, the structure may show the parent alone.

Target: T1, σ1 receptors (Homo sapiens, UniProt Q99720)
T1 construct: endogenous in cells; host or cells: HEK-293 cell membranes
Assay: σ1 receptor binding assay ((+)-[3H]pentazocine displacement, HEK-293 cell membranes)
Conditions: 10 nM (+)-[3H]-pentazocine, 120 min at 37° C.
Procedure: Sigma-1 (σ1) and sigma-2 (σ2) receptor binding assays are carried out in membranes from HEK-293 (Human Embryonic Kidney) cells.
Confluent HEK-293 cells are harvested in PBS/5 mM EDTA. They are centrifuged at 2000 rpm for 5 min and then washed two times in PBS. Cells are homogenized in 20 mM Tris-HCL (pH=7.5) containing 5 mM EDTA, 0.5 mM PMSF and 0.5 μg/mL leupeptin using a Dounce homogenizer and sonicated for 5 minutes.
Nuclear debris and intact cells are removed by centrifugation at 3000 rpm for 10 minutes at 4° C. The supernatant is centrifuged at 12000 rpm for 30 minutes and the resulting pellet is resuspended in 25 mM Tris-HCL (pH=7.5), 25 mM Mg2Cl, 10% sucrose containing 0.5 mM PMSF, 2 mM AEBSF, 1 mM EDTA, 130 μM bestatin, 14 μM E-64, 1 μM leupeptin and […] aprotinin.
Proteins are determined using the Bio Rad Protein Assay Dye Reagent and the membranes are aliquoted and frozen at −80° C. […]
Total binding is determined by incubating 50 μg of HEK-293 cell membranes with 10 nM (+)-[^3H]-pentazocine (Perkin-Elmer, 35 Ci/mmol) and assay buffer (50 mM Tris-HCl, pH=8.3) in a total volume of 200 μl. Non specific binding is determined in the presence of 10 μM unlabeled pentazocine. […] The filters are washed three times and the membrane-bound radioactivity is determined in a Microbeta scintillation counter. […]
Specific binding is determined by subtraction of non specific binding from total binding. […]

T1 sequence (Q99720 whole entry): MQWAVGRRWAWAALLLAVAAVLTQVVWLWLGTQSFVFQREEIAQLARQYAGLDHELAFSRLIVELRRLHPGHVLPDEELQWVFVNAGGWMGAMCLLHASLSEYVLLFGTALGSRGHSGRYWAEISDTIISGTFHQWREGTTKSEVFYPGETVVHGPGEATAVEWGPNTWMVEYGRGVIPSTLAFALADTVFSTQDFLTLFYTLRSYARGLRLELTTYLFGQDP

IC50 [nM]	SMILES
< 700	Fc1ccc(OCCN2CCN(CCOc3ccc(F)cc3)CC2)cc1 [1,4-bis-[2-(4-fluorophenoxy)ethyl]piperazine]
< 700	Fc1ccccc1OCCN1CCN(CCOc2ccccc2F)CC1 [Example 1, 1,4-Bis-[2-(2-fluorophenoxy)ethyl]piperazine dihydrochloride]
